What was measured:
[1] = DPPH free radical scavenging test; details: 517 nm, 30 min incubation
Procedure: Four synthetic compounds were tested for the efficiency of scavenging free radicals matched with trolox and gallic acid as a basic. From the compounds, 1 mg/ml concentration solutions in methanol were prepared, and the solutions were used to prepare concentrations of 5, 10, 20, 30, 40, and 50 μg/ml. The DPPH reagent (0.002% w/v) was dissolved in methanol before mixed with working concentrations in ratios of 1:1:1 (compound:DPPH:methanol). The methanol solution was adopted as a blank. All the solutions were incubated for 30 min at room temperature in the dark. When the antioxidant compound reacts with DPPH, which can donate hydrogen, it is reduced the color changes from deep violet to light. Absorbance values were estimated by using a UV–Vis spectrophotometer at a wavelength of 517 nm. The DPPH inhibition percentage of all tested compound, trolox and gallic acid, was estimated according to the formula: Inhibitionpercentage=Ab-As/Ab×100%, where Ab is blank absorbance, and AS is sample absorbance. The IC50 values for tested synthetic compounds, trolox and gallic acid were determined from the curves.

[2] = molecular target: T1, porcine pancreatic amylase (Sus scrofa, UniProt P00690); assay: α-Amylase inhibitory activity; format: biochemical; details: mean ± SD, triplicates; read-out: α-Amylase enzyme IC50 (converted)
T1 construct: purchased Frutarom (UK)
T1 sequence (P00690 16-511): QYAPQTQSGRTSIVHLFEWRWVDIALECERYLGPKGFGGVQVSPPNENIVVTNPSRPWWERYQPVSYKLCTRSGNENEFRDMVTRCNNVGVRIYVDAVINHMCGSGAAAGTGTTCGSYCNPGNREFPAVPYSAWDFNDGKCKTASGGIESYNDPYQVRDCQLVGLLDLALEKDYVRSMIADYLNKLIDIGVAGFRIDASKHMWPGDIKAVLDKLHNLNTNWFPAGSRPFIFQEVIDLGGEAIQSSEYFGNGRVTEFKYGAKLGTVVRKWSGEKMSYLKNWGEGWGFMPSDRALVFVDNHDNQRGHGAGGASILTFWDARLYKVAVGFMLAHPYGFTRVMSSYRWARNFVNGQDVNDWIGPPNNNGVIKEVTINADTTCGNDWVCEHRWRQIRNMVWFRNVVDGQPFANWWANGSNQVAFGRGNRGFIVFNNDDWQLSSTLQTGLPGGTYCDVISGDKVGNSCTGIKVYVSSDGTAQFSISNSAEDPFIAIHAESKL
Procedure: The α-amylase inhibitory evaluation was established following the Wickramaratne et al. procedure[13] with minor changes. Working solutions with concentrations of 10, 50, 100, 500, and 1000 µg/ml were produced from our synthesized compounds, diluting them with a buffer of Na2HPO4/NaH2PO4 (0.02 M), NaCl (0.006 M) at pH 6.9 and then brined up to 10 ml using a 10 ml volumetric flask. […] As percent inhibition, the enzyme inhibitory potential was expressed, and the following equation was utilized to estimate the IC50 dose for the samples[14]. %a-AmylaseInhibiton=Abs100%control-AbsSample/Abs100%Control×100

α-glucosidase = assay: α-Glucosidase (α-glycosidase) inhibitory activity, PNPG substrate; format: biochemical; details: mean ± SD, triplicates
Procedure: The inhibition of α-glucosidase activity by the synthesized molecules was measured. The α-glucosidase inhibitory activity is expressed as percentages of inhibition, which was calculated using the following formula: Inhibitoryeffect%=Ab-As/Ab∗100% where Ab and As are the absorbance values of the blank (containing PBS, α-glucosidase, and PNPG, the colored substrate of glucosidase) and the tested samples containing PBS, samples, α-glycosidase, and PNPG, respectively. The α-glucosidase activity was measured using 10 and 20 mg/ml of the synthesized molecules. Each concentration was recorded by using […] PNPG. The inhibitory pattern was assessed using a Lineweaver–Burk plot. The constant Ki of enzyme inhibitory effect was determined.

[3] = molecular target: T2, porcine pancreatic lipase enzyme (Sus scrofa, UniProt P00591); assay: Porcine pancreatic lipase inhibition (p-nitrophenyl butyrate hydrolysis); format: biochemical; details: read-out: Anti-lipase activity IC50 (converted)
T2 construct: purchased Frutarom (UK)
T2 sequence (P00591 1-450): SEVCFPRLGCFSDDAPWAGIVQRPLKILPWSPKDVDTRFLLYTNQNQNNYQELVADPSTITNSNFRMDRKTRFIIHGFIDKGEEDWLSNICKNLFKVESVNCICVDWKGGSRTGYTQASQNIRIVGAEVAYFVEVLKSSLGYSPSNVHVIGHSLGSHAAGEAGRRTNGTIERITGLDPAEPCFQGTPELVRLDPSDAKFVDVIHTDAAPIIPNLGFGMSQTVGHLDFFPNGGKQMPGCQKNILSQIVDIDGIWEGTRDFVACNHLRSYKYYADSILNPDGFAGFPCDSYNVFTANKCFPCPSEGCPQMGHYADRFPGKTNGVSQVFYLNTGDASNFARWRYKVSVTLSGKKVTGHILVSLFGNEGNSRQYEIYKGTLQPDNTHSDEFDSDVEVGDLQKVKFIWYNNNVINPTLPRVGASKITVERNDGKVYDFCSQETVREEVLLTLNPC
Procedure: The lipase inhibitory activity was conducted by following the method in the references with minor modifications[19]–[21]. The prepared synthesized compounds solutions (1 mg/ml) were diluted with 10% DMSO to produce five different dilutions (0.2, 0.4, 0.6, 0.8, and 1 mg/ml). […] A Tris–HCl buffer was used to zero UV–Vis spectrophotometer at 405 nm.
The hydrolysis of p-nitrophenyl butyrate to p-nitrophenyl was used to measure the influence of the synthetic acid esters on the porcine pancreatic lipase enzyme.

[4] = β-Carotene linoleic acid antioxidant test; details: concentration 0.2 mg/ml; for Absorbance in β-carotene linoleic acid test: after 75 min, 470 nm; for Antioxidant efficiency in β-carotene linoleic acid test: compared with water (control) and α-tocopherol
Procedure: The activity of the synthesized compounds was assessed via performing a modified assay of Gazzani and Miller[17]. The method was based on the coupled oxidation of β-carotene and linoleic acid emulsion. The bleaching mechanism of β-carotene is produced from the hydro-peroxides created from linoleic acid[18]. During the oxidation process, the characteristic orange color of β-carotene and the chromophore will be lost. The presence of antioxidants can hinder the extent of the β-carotene bleaching. Briefly, 1 mg of β-carotene was dissolved in 2 ml of chloroform, 20 mg of linoleic acid, and 200 mg of Tween 20. A rotary evaporator entirely vaporized chloroform at a temperature of less than 30 °C under reduced pressure. Then 200 ml of distilled water saturated with oxygen was added to the flask, which was shaken vigorously for 30 min. A sample (5 ml) of the prepared emulsion was transferred to a series of tubes containing 0.1 ml of the synthesized compounds or tocopherol (2 mg/ml).
The control sample was prepared in the same way but without added antioxidants. Each sample type was prepared in triplicate. The samples were inserted in a water bath at 50 °C for 2 h. The absorbance of the samples was measured using a spectrophotometer at a wavelength of 470 nm, immediately after the preparation of the samples, and at 15-min intervals until the end (t = 120 min) of the experiment.

Row | Antioxidant activity IC50, DPPH test [1] | IC50 [2] | α-Glycosidase enzyme IC50 (α-glucosidase) | IC50 [3] | SMILES | Absorbance in β-carotene linoleic acid test [4] | Antioxidant efficiency in β-carotene linoleic acid test [4]
1 | 47.01 ± 1.07 µg/mL | 13.8 µM | 10.09 ± 0.70 µg/mL | 418 µM | O=C(OCCSc1ccccc1)c1ccccc1 [Compound 2a] | 1.04 | higher antioxidant efficiency
2 |  | 45.3 µM | 89.95 ± 0.49 µg/mL |  | O=C(OCCSc1ccccc1)c1ccccc1O [Compound 2b] | 0.84 | higher antioxidant efficiency
3 |  | 48.9 µM | 114.17 ± 1.04 µg/mL | 434 µM | O=C(OCCSc1ccccc1)c1ccc(O)cc1 [Compound 2d] |  | 
4 | 4.28 ± 0.47 µg/mL |  |  |  | Cc1c(C)c2c(c(C)c1O)CC[C@@](C)(C(=O)O)O2 [Trolox, (S)-(–)-6 hydroxy-2,5,7,8-tetramethychroman-2-carboxylic acid] |  | 
5 |  | 71.3 µM | 78.1 ± 0.76 µg/mL | 1240 µM | O=C(OCCSc1ccccc1)c1cccc(O)c1 [Compound 2c] |  | 
6 | 31.72 ± 1.22 µg/mL |  |  |  | O=C(O)c1cc(O)c(O)c(O)c1 [Gallic acid, gallic acid] |  | 

— publication PMC8873473, “Antidiabetic, antioxidant, and anti-obesity effects of phenylthio-ethyl benzoate derivatives, and molecular docking study regarding α-amylase enzyme” (Scientific Reports, 2022)
